Measurements taken from patent US12083101B2, “Biaryl derivatives as YAP/TAZ-TEAD protein-protein interaction inhibitors” (Novartis AG, priority 2020, dated 2024).

Molecular target: Avi-humanTEAD4 217-434 / Cy5 labeled humanYAP 60-100 (Homo sapiens (Human), UniProt Q15561)
Test: TR-FRET YAP-TEAD4 in-vitro biochemical assay
Type: binding
Details: 1 nM Avi-humanTEAD4 217-434, 20 nM Cy5-humanYAP 60-100, 1 h room temperature

Avi-humanTEAD4 217-434 / Cy5 labeled humanYAP 60-100, sequence (Q15561 217-434): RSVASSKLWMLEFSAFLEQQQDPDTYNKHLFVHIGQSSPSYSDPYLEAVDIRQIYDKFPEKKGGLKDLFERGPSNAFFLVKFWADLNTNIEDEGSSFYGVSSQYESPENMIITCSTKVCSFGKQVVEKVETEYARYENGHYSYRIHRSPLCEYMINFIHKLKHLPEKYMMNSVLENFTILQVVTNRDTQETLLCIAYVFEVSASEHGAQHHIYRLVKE

Compound | IC50
COCCOc1ccc(C(N)=O)c(-c2c(Cl)c(F)cc3c2[C@H](C)[C@@](CN[C@H]2CC[C@](C)(O)CC2)(c2ccccc2)O3)c1F (atropisomer, axis not shown) [Example 116a, 2-((25,35,4S)-5-chioro-6-fluoro-2-((((trans)-4-hydroxy-4-methylcyclohexyl)amino)methyl)-3-methyl-2-phenyl-2,3-dihydrobenzofuran-4-yl)-3-fluoro-4-(2-methoxyethoxy)benzamide] | < 1 nM
C[C@H]1c2c(cc(F)c(Cl)c2-c2c(C(N)=O)ccc(OC(F)F)c2F)O[C@]1(CN[C@H]1CC[C@H](O)CC1)c1ccccc1 (atropisomer, axis not shown) [Example 115a, 2-((2S,3S,4S)-5-chloro-6-fluoro-2-((((trans)-4-hydroxycyclohexyl)amino)methyl)-3-methyl-2-phenyl-2,3-dihydrobenzofuran-4-yl)-4-(difluoromethoxy)-3-fluorobenzamide] | 2 nM
COc1ccc(C(N)=O)c(-c2c(Cl)ccc3c2[C@H](O)[C@@](CN[C@H]2CC[C@@H](O)CC2)(c2ccccn2)O3)c1F (relative stereo) [Example 95b, 2-((2R,3S,4S)-5-chloro-3-hydroxy-2-((((cis)-4-hydroxycyclohexyl)amino)methyl)-2-(pyridin-2-yl)-2,3-dihydrobenzofuran-4-yl)-3-fluoro-4-methoxybenzamide] | 7 nM
CO[C@H]1CC[C@@H](NC[C@]2(c3ccccc3)Oc3cc(F)c(Cl)c(-c4c(C(N)=O)ccc(OC(F)F)c4F)c3[C@@H]2O)CC1 (relative stereo) [Example 136a, 2-((2S,3S,4S)-5-Chloro-6-fluoro-3-hydroxy-2-((((cis)-4-methoxycyclohexyl)amino)methyl)-2-phenyl-2,3-dihydrobenzofuran-4-yl)-4-(difluoromethoxy)-3-fluorobenzamide] | 7 nM
C[C@]1(O)CC[C@@H](NC[C@@]2(c3ccccc3)Cc3c(cc(F)c(Cl)c3-c3c(C(N)=O)ccc(OC[C@H]4CCCO4)c3F)O2)CC1 (atropisomer, axis not shown) [Example 67a, 2-((2S,4S)-5-chloro-6-fluoro-2-((((cis)-4-hydroxy-4-methylcyclohexyl)amino)methyl)-2-phenyl-2,3-dihydrobenzofuran-4-yl)-3-fluoro-4-(((R)-tetrahydrofuran-2-yl)methoxy)benzamide] | 2 nM
NC(=O)c1ccc(OC(F)F)c(F)c1-c1c(Cl)c(F)cc2c1[C@H](O)[C@@](CN[C@H]1CC[C@@H](O)CC1)(c1ccccc1)O2 (relative stereo) [Example 100b, 2-((2S,3S,4S)-5-chloro-6-fluoro-3-hydroxy-2-((((cis)-4-hydroxycyclohexyl)amino)methyl)-2-phenyl-2,3-dihydrobenzofuran-4-yl)-4-(difluoromethoxy)-3-fluorobenzamide] | 5 nM
CS(=O)(=O)NC1CCC(NC[C@@]2(c3ccccc3)Cc3c(cc(F)c(Cl)c3-c3c(C(N)=O)ccc(OC(F)F)c3F)O2)CC1 (single isomer, unassigned) [Example 57b] | 6 nM
COC(=O)[C@H]1CC[C@@H](NC[C@@]2(c3ccccc3)Cc3c(ccc(Cl)c3-c3c(C(N)=O)ccc(F)c3F)O2)CC1 (relative stereo) [Example 137a, Methyl (cis)-4-((((2S,4S)-4-(6-carbamoyl-2,3-difluorophenyl)-5-chloro-2-phenyl-2,3-dihydrobenzofuran-2-yl)methyl)amino)cyclohexane-1-carboxylate] | 5 nM
NC(=O)c1ccc(OC(F)F)c(F)c1-c1c(Cl)c(F)cc2c1C[C@@](CN[C@H]1C[C@H](COC(F)F)C1)(c1ccccc1)O2 (atropisomer, axis not shown) [Example 80, 2-((2S,4S)-5-chloro-2-(((trans-3-((difluoromethoxy)methyl)cyclobutyl)amino)methyl)-6-fluoro-2-phenyl-2,3-dihydrobenzofuran-4-yl)-4-(difluoromethoxy)-3-fluorobenzamide] | 14 nM
CNC[C@@]1(c2ccccc2)Cc2c(cc(F)c(Cl)c2-c2c(C(N)=O)cnc(OCCO)c2F)O1 (atropisomer, axis not shown) [Example 49, 4-((2S,4S)-5-Chloro-6-fluoro-2-((methylamino)methyl)-2-phenyl-2,3-dihydrobenzofuran-4-yl)-5-fluoro-6-(2-hydroxyethoxy)nicotinamide] | 5 nM
CNC(=O)c1cnc(OCCO)c(F)c1-c1c(Cl)c(F)cc2c1C[C@@](CN)(c1ccccc1)O2 (atropisomer, axis not shown) [Example 45, 4-((2S,4S)-2-(Aminomethyl)-5-chloro-6-fluoro-2-phenyl-2,3-dihydrobenzofuran-4-yl)-5-fluoro-6-(2-hydroxyethoxy)-N-methylnicotinamide] | 10 nM
NC[C@]1(c2ccccc2)Oc2cc(F)c(Cl)c(-c3c(C(N)=O)ccc(OCCO)c3F)c2[C@@H]1O (atropisomer, axis not shown) [Example 98, 2-((2S,3S,4S)-2-(Aminomethyl)-5-chloro-6-fluoro-3-hydroxy-2-phenyl-2,3-dihydrobenzofuran-4-yl)-3-fluoro-4-(2-hydroxyethoxy)benzamide] | 5 nM
COC(=O)[C@H]1CC[C@H](NC[C@@]2(c3ccccc3)Cc3c(ccc(Cl)c3-c3c(C(N)=O)ccc(F)c3F)O2)CC1 (relative stereo) [Example 137b, methyl (trans)-4-((((2S,4S)-4-(6-carbamoyl-2,3-difluorophenyl)-5-chloro-2-phenyl-2,3-dihydrobenzofuran-2-yl)methyl)amino)cyclohexane-1-carboxylate] | 6 nM
NC[C@@]1(c2ccccc2)Cc2c(cc(F)c(Cl)c2-c2c(F)cccc2C(N)=O)O1 [Example 32b, 2-((2S,4R)-2-(aminomethyl)-5-chloro-6-fluoro-2-phenyl-2,3-dihydrobenzofuran-4-yl)-3-fluorobenzamide] | > 100000 nM
NC(=O)c1ccc(OC(F)F)c(F)c1-c1c(Cl)c(F)cc2c1C[C@@](CNC1CCC(CO)CC1)(c1ccccc1)O2 (single isomer, unassigned) [Example 61a] | 8 nM
COc1ccc(C(N)=O)c(-c2c(Cl)ccc3c2OC(CN)(c2ccccc2)C3)c1F (single isomer, unassigned) [Example 132, 2-(2-(Aminomethyl)-6-chloro-2-phenyl-2,3-dihydrobenzofuran-7-yl)-3-fluoro-4-methoxybenzamide] | 2080 nM
NC(=O)c1ccc(OC(F)F)c(F)c1-c1c(Cl)c(F)cc2c1C[C@@](CNCCN1CCCC1=O)(c1ccccc1)O2 (atropisomer, axis not shown) [Example 78, 2-((2S,4S)-5-chloro-6-fluoro-2-(((2-(2-oxopyrrolidin-1-yl)ethyl)amino)methyl)-2-phenyl-2,3-dihydrobenzofuran-4-yl)-4-(difluoromethoxy)-3-fluorobenzamide] | 160 nM
CC(C)(C)NC[C@@]1(c2ccccc2)Cc2c(cc(F)c(Cl)c2-c2c(C(N)=O)ccc(OC(F)F)c2F)O1 (atropisomer, axis not shown) [Example 73, 2-((2S,4S)-2-((tert-butylamino)methyl)-5-chloro-6-fluoro-2-phenyl-2,3-dihydrobenzofuran-4-yl)-4-(difluoromethoxy)-3-fluorobenzamide] | 14 nM
CNC(=O)c1cnc(O)c(F)c1-c1c(Cl)c(F)cc2c1C[C@](c1ccccc1)([C@@H]1CCCN1)O2 [Example 157, 4-((2S,4S)-5-chloro-6-fluoro-2-phenyl-2-((S)-pyrrolidin-2-yl)-2,3-dihydrobenzofuran-4-yl)-5-fluoro-6-hydroxy-N-methylnicotinamide] | 75 nM
CNC[C@@]1(c2ccccc2)Cc2c(cc(F)c(Cl)c2-c2c(C(=O)NC)cnc(OCCO)c2F)O1 (atropisomer, axis not shown) [Example 53, 4-((2S,4S)-5-chloro-6-fluoro-2-((methylamino)methyl)-2-phenyl-2,3-dihydrobenzofuran-4-yl)-5-fluoro-6-(2-hydroxyethoxy)-N-methylnicotinamide] | 6 nM
CS(=O)(=O)NC1CCC(NC[C@@]2(c3ccccc3)Cc3c(cc(F)c(Cl)c3-c3c(C(N)=O)ccc(OC(F)F)c3F)O2)CC1 (single isomer, unassigned) [Example 57a] | 3 nM
CNC[C@]1(c2ccccn2)Oc2cc(F)c(Cl)c(-c3c(C(N)=O)ccc(OCCO)c3F)c2[C@@H]1C (atropisomer, axis not shown) [Example 112, 2-((2R,3S,4S)-5-chloro-6-fluoro-3-methyl-2-((methylamino)methyl)-2-(pyridin-2-yl)-2,3-dihydrobenzofuran-4-yl)-3-fluoro-4-(2-hydroxyethoxy)benzamide] | 1 nM
NC(=O)c1ccc(OC(F)F)c(F)c1-c1c(Cl)c(F)cc2c1C[C@@](CNCC1CC1)(c1ccccc1)O2 (atropisomer, axis not shown) [Example 50, 2-((2S,4S)-5-Chloro-2-(((cyclopropylmethyl)amino)methyl)-6-fluoro-2-phenyl-2,3-dihydrobenzofuran-4-yl)-4-(difluoromethoxy)-3-fluorobenzamide] | 30 nM
COCCOc1ccc(C(N)=O)c(-c2c(Cl)c(F)cc3c2[C@H](C)[C@@](CN[C@H]2CC[C@@](C)(O)CC2)(c2ccccc2)O3)c1F (atropisomer, axis not shown) [Example 116b, 2-((2S,3S,4S)-5-chloro-6-fluoro-2-((((cis)-4-hydroxy-4-methylcyclohexyl)amino)methyl)-3-methyl-2-phenyl-2,3-dihydrobenzofuran-4-yl)-3-fluoro-4-(2-methoxyethoxy)benzamide] | 1 nM
NCC1(c2ccccc2)Oc2ccc(Cl)c(-c3c(F)cccc3C(N)=O)c2O1 (single isomer, unassigned) [Example 133, 2-(2-(Aminomethyl)-5-chloro-2-phenylbenzo[d][1,3]dioxol-4-yl)-3-fluorobenzamide] | 695 nM
NC[C@@]1(c2ccccc2)Cc2c(ccc(Cl)c2-c2c(C(N)=O)ccc(F)c2F)O1 (atropisomer, axis not shown) [Example 9, 2-((2S,4S)-2-(aminomethyl)-5-chloro-2-phenyl-2,3-dihydrobenzofuran-4-yl)-3,4-difluorobenzamide] | 4 nM
